{"source": "patent US20070225255A1", "about": "“Use of Mitochondrially Targeted Antioxidant in the Treatment of Liver Diseases and Epithelial Cancers” (priority 2004, published 2007)", "key": {"DDC intoxicated mice [1]": {"system": "DDC intoxicated mice", "assay": "Tocopherol quinone content in isolated mouse liver mitochondria", "type": "in vivo", "details": "DDC intoxicated mice with or without MitoQ", "method": "In order to evaluate oxidative stress in control versus DDC-intoxicated mice with or without treatment by using antioxidants according to the invention, tocopherol quinone (TQ) content (Gille L. et al., 2004, Biochemic. Pharmacology, 68: 373-381) in isolated liver mitochondria (all tested animal groups prepared according to protocols in Example 3) is performed. The mouse liver mitochondria are prepared according to modified protocol from Staniek K. and Nohl H., 1999, Biochem. et Biophys. Acta, 1413: 70-80; Mela L. and Sietz S., 1979, Methods in Enzymology, Academic Press Inc.: 39-46, and TQ content is normalized to several parameters including protein and cytochrome concentrations and activity tests of complex I (NADH dehydrogenase), complex II (succinate dehydrogenase), complex III (cytochrome bcl) and complex IV (cytochrome oxidase).\nA method for rat heart mitochondria (Staniek K. and Nohl H., 1999, Biochem. et Biophys. Acta, 1413: 70-80; Mela L. and Sietz S., 1979, Methods in Enzymology, Academic Press Inc.: 39-46) is adapted for mouse liver (ca. 10% weight compared to rat liver) isolated from various animal groups according to Example 3. The isolation of liver is performed at 4° C. […] The protein concentration is measured with the Biuret method (BSA as standard, at least […] protein needed for double determination) with expected yield of 3 to 6 mg. […]"}, "HUH-7 cells": {"system": "HUH-7 cells", "assay": "ROS production induced by Antimycin A, lucigenin chemiluminescence assay", "type": "cell-based, human", "details": "Antimycin A 0, 1 and 5 μM, MitoQ 0 to 1000 nmol, 3 hours at 37° C.", "method": "HUH-7 cells are incubated in 6 well plates and stimulated with Antimycin A in concentration 0-25 μM (0, 1 and 5 μM) simultaneously with or without MitoQ in concentration range from 0 to 1000 nmol dissolved in DMEM (Gibco) for 3 hours at 37° C. The light reaction between superoxide and lucigenin is detected. X axis represents a concentration range of MitoQ [nM] whereas y axis the chemiluminescence signal expressed as average counts per minute [cpm] after normalization to cell number determined by cell counter.\nAnother approach allows measurement of the ROS production induced by antimycin A or rotenone by using lucigenin chemiluminescence assay (experimental set up as in Example 9) in e.g. HUH-7 or Tib-73. HUH-7 cells are incubated in 6 well plates and stimulated by using antimycin A in concentration 0-25 μM (preferably 0, 1 and 5 μM) simultaneously with or without MitoQ (or MitoS) in concentration range from 0 to 1000 nmol dissolved in DMEM (Gibco) for 3 hours at 37° C. […] The light reaction between superoxide and lucigenin is detected using a chemiluminescence reader (Lumistar, BMG laboratories, Germany). The chemiluminescence signal is expressed as average counts per minute and normalized to cell number as determined by cell counter (Casy Technology Instrument, Schärfe-System, Germany)."}, "[2]": {"system": "DDC- or GF intoxicated mice", "assay": "Toxic memory effect upon reintoxication with DDC or GF after recovery", "type": "in vivo, mouse", "details": "10 weeks DDC or GF, 4 weeks recovery, reexposure 24 to 72 hours with simultaneous treatment", "excerpt": "Mouse livers respond to DDC- or GF intoxication first with ballooning of hepatocytes and formation of a denser keratin IF network. After around 6 weeks of intoxication, ballooned hepatocytes show a reduced density of the keratin IF and early MBs can be observed as fine granules associated with the keratin IF network. Continuation of intoxication leads to the appearance of large MBs typically located in the perinuclear cytoplasmic region. […] Upon cessation of intoxication, MBs disappear within several weeks. At 4 weeks of recovery from intoxication, there are groups of hepatocytes devoid of cytoplasmic keratin filaments but still containing small remnants of MBs at the cell periphery in association with desmosomes. If such mice are reexposed to DDC or GF numerous MBs reappear within 24 to 72 hours (Stumptner C. et al., 2001, J. Hepatol., 34: 665-675). This enhanced formation of MBs upon reintoxication was interpreted—in analogy to allergic reactions—as a toxic memory effect.\nIn another set of experiments, 10 week-intoxication of mice with DDC or GF is followed by 4 weeks of recovery."}, "[3]": {"details": "according to Jauslin M. L. et al., 2003, FASEB J.; cited from earlier work"}, "[4]": {"system": "mitochondria within isolated cells", "details": "in vitro; cited from earlier work"}, "[5]": {"details": "fed to mice on a long term basis; cited from earlier work"}, "DDC intoxicated mice [6]": {"system": "DDC intoxicated mice", "assay": "Long term (10 weeks) DDC intoxication, liver histology (cell ballooning, Mallory bodies)", "details": "then 1 week without DDC with two injections of MitoQ", "description": "Furthermore, single-label immunohistochemistry or double-label immunoflourescence microscopy is performed to detect MBs in tested animals.\nIn long term experiments by using mice intoxicated with DDC (for 8-10 weeks) the presence (or absence) of cell ballooning and/or Mallory bodies (MBs) in liver samples of treated animals is determined and compared to the control groups of animals.\nIn another set of experiments, after 10 weeks of DDC intoxication tested animals receive i.p. injections of MitoQ (1.25 mg/kg) twice within subsequent 7 days (day 1 and day 4 of the corresponding week), and are analysed by routine histology (standard haematoxylin/eosin staining according to Luna L. G., 1968, Manual of Histologic staining methods of the Armed Forces Institute of Pathology, 3rd edition. McGraw Hill, New York)."}}, "data": [{"substance": "MitoQ", "values": [{"measurement": "tocopherol quinone (TQ) levels in liver mitochondria", "setting": "DDC intoxicated mice [1]", "result": "elevated TQ levels in DDC intoxicated mice when compared to controls and mice treated with MitoQ"}, {"measurement": "ROS formation (lucigenin chemiluminescence)", "setting": "HUH-7 cells", "result": "significant reduction in ROS formation"}, {"measurement": "toxic memory effect (reappearance of MBs)", "setting": "[2]", "result": "reduced or abolished"}, {"measurement": "EC50", "setting": "[3]", "result": 510, "unit": "pM"}, {"measurement": "accumulation by mitochondria", "setting": "[4]", "result": "rapidly and selectively accumulated by mitochondria"}, {"measurement": "concentrations within the brain, heart, liver, and muscle", "setting": "[5]", "result": "potentially therapeutically effective concentrations"}, {"measurement": "safety of feeding", "setting": "[5]", "result": "fed safely"}, {"measurement": "accumulation of protoporphyrin in bile ducts", "setting": "DDC intoxicated mice [6]", "result": "markedly reduced"}]}]}
